# From publication PMC12040169 (PLOS Biology, 2025)
# Assay: in vitro
# Conditions: human, hela cells, % viability
row,Structure (SMILES),"viability at 28.5 h, 10 µM [%]"
1,COc1cc(C(=O)N2CCN(c3cc(C(C)C)ccc(CO)c3=O)CC2)cc(OC)c1OC [CBK007673],91
2,CC(C)NS(=O)(=O)c1ccc(OCC(=O)Nc2ccc3c(c2)OCO3)c(Cl)c1 [CBK267919],92.5
3,COc1ccc(CCn2cncc2-c2cnn(C)c2)cc1C [CBK281457],107
4,C(=C\c1ccccc1)/CSc1nnc(-c2cnccn2)n1Cc1ccco1 [CBK267587],119
5,CCCn1ccnc1CNc1nc(C(C)(C)C)nc2c1cnn2C [CBK306739],91.3
6,N#Cc1ccc(-n2nc(-c3ccccc3)c3ccccc3c2=O)c([N+](=O)[O-])c1 [CBK132567],96.6
7,COc1cccc(C2C(C(=O)c3ccc(Br)cc3)=C(O)C(=O)N2CCN2CCOCC2)c1OC (stereo not drawn) [CBK264855],110
8,CCC(O)Cn1nc(CCSC)nc1-c1ccc2[nH]ccc2c1 (stereo not drawn) [CBK307526],104
9,O=C(Cc1ccc(Cl)c(Cl)c1)N1CCN(C(=O)c2ccco2)CC1 [CBK144454],95.2
10,Cc1cc(NCc2ccccc2)nc2[nH]nc(N)c12 [CBK287931],87.7
11,c1ccc(CCN2CCC(Oc3cncc(OCC4COc5ccccc5O4)n3)C2)cc1 (stereo not drawn) [CBK084382],93
12,COc1cccc(-c2ccc(C(=O)Nc3ccc4c(c3)OCO4)c(N3CCOCC3)n2)c1 [CBK076509],93.5
13,Cc1ccc(/C(N)=N/OC(=O)COc2cccc3ccccc23)cc1 [CBK263009],98.5
14,O=C(NCCc1c[nH]cn1)NC12CC3CC(CC(C3)C1)C2 [CBK269880],86.2
15,c1ccc2[nH]c(SCCCCCSc3nc4ccccc4[nH]3)nc2c1 [CBK025418],101
16,CCOC(=O)c1c(N)sc2c1CC(c1ccccc1)SC2c1ccccc1 (stereo not drawn) [CBK293955],87.5
17,CCOC(=O)C1CCN(S(=O)(=O)c2ccc(C(C)C)cc2)CC1 [CBK200044],86.4
18,O=C(NCCN1CCCC1=O)Nc1ccccc1 [CBK263517],116
19,CCOC(=O)c1ccc(N2C(=O)CC(N3CCN(c4ncccn4)CC3)C2=O)cc1 (stereo not drawn) [CBK263306],105
20,O=C(N[C@H]1C[C@@H]2C(=O)N[C@H]3CCN(C(=O)Cc4cccs4)[C@@H]3C(=O)N2C1)C1CCC1 [CBK289269],117
21,COC(=O)c1cccc(CCC2CC(=O)C=C(O)C2)c1 (stereo not drawn) [CBK012720],93.7
22,CC(C)(C)C1=CC2=NC3(CCOCC3)[C@@H]3C[C@@H](O)[C@@H](O)[C@@H]3N2O1 [CBK303244],90.1

row,Structure (SMILES),"viability at 28.5 h, 10 µM [%]"
1,CCNC(=O)N1CCN(CCOC(c2ccc(F)cc2)c2ccc(F)cc2)CC1 [CBK024943C],95.6
2,Cc1onc(-c2ccccc2)c1CNC(=O)CC1CC1 [CBK144072],85.4
3,O=C1NC2(CCCN(C(=O)c3ccco3)C2)Oc2ccccc21 (stereo not drawn) [CBK284800],99.8
4,O=[N+]([O-])c1cccc(/C=N/Nc2nc(-c3ccccc3)cc(-c3ccccc3O)n2)c1 [CBK261722],95.8
5,N#Cc1ccc(CSc2nnc(COc3ccccc3)n2Cc2ccco2)cc1 [CBK267539],87.9
6,O=C1CCC(=O)N1CCOc1nccnc1N1CCN(Cc2ccc([N+](=O)[O-])cc2)CC1 [CBK084294],93
7,Cc1ccc(S(=O)(=O)NC2c3cccc4cccc(c34)C2Sc2nnc(N)s2)cc1 (stereo not drawn) [CBK265835],107
8,O=C(O)c1ccc(OC(=O)C2CCCC2)cc1 [CBK090156],103
9,O=C(NCCc1cccs1)NC1CCCc2c1cnn2CCO (stereo not drawn) [CBK306324],92.6
10,CCc1nc2ccc(C(=O)NC3CCN(C)CC3)cn2c1N(C)C=O [CBK146594],108
11,CCN(CC)C(=O)c1[nH]c2ccccc2c1NS(=O)(=O)Cc1ccccc1 [CBK050107],108
12,Cc1cc(NC(=O)Cn2nc(C(F)(F)F)c(Cl)c2C)no1 [CBK018709],87.3
13,COc1ccc([C@@]23CC[C@H](NC(=O)CS(=O)(=O)c4ccccc4)C[C@@H]2N(C)CC3)cc1OC [CBK036445],105
14,COc1ccc([C@H]2CN(C(=O)c3ccccc3)[C@@H]3CCN(Cc4cccc(F)c4)C[C@H]23)cc1 [CBK285584],98.9
15,O=C(c1ccc(F)cc1)N1C[C@@H](c2ccsc2)[C@@H]2CN(Cc3cccc(F)c3)CC[C@@H]21 [CBK285640],91.2
16,O=C(CSc1n[nH]c(-c2ccccc2Cl)n1)Nc1ccccc1F [CBK265901],82.9
17,Sc1nnc(COc2ccccc2)n1/N=C/c1cccnc1 [CBK265308],103
18,CN(C)CCCNc1oc(/C=C/c2cccs2)nc1C#N [CBK269317],86.7
19,O=C1Nc2ccccc2C12CC(c1ccccc1Cl)=NN2 (stereo not drawn) [CBK288004],111
20,CCCC(C)N(C)C(=O)CCc1c(C)nc(-c2cccnc2)[nH]c1=O (stereo not drawn) [CBK304965],106
21,CC1(C)CC(N2CN(C3CC(C)(C)NC(C)(C)C3)CN(C3CC(C)(C)NC(C)(C)C3)C2)CC(C)(C)N1 [CBK261985],90.8
22,O=C(NCCCn1ccnc1)Nc1cccc(Cl)c1 [CBK265458],93.9

row,Structure (SMILES),"viability at 28.5 h, 10 µM [%]"
1,COCOc1ccc(-c2nccnc2OCCN2C(=O)c3ccccc3C2=O)cc1 [CBK106913],111
2,Cc1cc(Cl)c(OCCn2c3ccccc3c3ccccc32)c(Br)c1 [CBK264826],92.2
3,Cc1ccc(S(=O)(=O)NCCSc2nc(-c3ccc([N+](=O)[O-])cc3)c[nH]2)cc1 [CBK268518],97
4,CC(CC(=O)N1CCCC(c2cc3cccnc3[nH]2)C1)n1ccnc1 (stereo not drawn) [CBK285034],105
5,CCn1cc(Cl)c(C(=O)Nc2ccsc2C(=O)OC)n1 [CBK058439],90.9
6,Cc1cccc(CCNC(=O)C2CN(C(=O)C3CCN(C)CC3)C2)c1 [CBK281967],98.4
7,O=C(NCc1nc(-c2ccccc2)no1)C(c1cccs1)c1cccs1 [CBK286340],109
8,COc1ccccc1Cc1cccc(C2CCN(CC(=O)Nc3nccs3)CC2)n1 [CBK286227],95.1
9,COc1ccc(C(=O)NC(=S)Nc2ccc(O)c(-c3nc4cc(C)c(C)cc4o3)c2)cc1[N+](=O)[O-] [CBK264039],111
10,Cc1cc(Br)cc(C)c1NC(=O)CSc1nnc(COc2ccccc2Cl)o1 [CBK264968],93
11,c1ccc([C@@H]2CN(CC3CCOC3)C[C@H]2c2cc[nH]n2)cc1 (stereo partly drawn) [CBK285163],110
12,Cn1ccc(C2CCCCCN2S(=O)(=O)c2ccc(F)cc2)n1 (stereo not drawn) [CBK284671],98.8
13,CC(C)(Oc1ccc(Cl)cc1)C(=O)O/N=C(\N)c1ccc(I)cc1 [CBK268760],97.2
14,CC(=O)c1ccccc1-c1ccc(C(=O)NCCc2ccccn2)c(NCC2CC2)n1 [CBK076580],98.8
15,O=S(=O)(c1ccc(Br)cc1F)N1CCCCC1CO (stereo not drawn) [CBK051302],92.9
16,CCN1CCN(S(=O)(=O)c2cccc([N+](=O)[O-])c2)CC1 [CBK266675],83.8
17,CCOC(=O)c1cccc(-c2cc3ccccc3o2)n1 [CBK149243],114
18,Cc1ccc(S(=O)(=O)Nc2cccc(C(=O)O)c2)cc1 [CBK038891],84.1
19,CSc1nc(NC(=O)c2ccccc2)cc(N2CCNCC2)n1 [CBK050266T],93.6
20,c1cnc2c(c1)cc([C@H]1CCCO1)n2CCN1CCCC1 [CBK282289],91.9
21,CCOc1ccc(S(=O)(=O)Nc2cnccn2)cc1 [CBK270313],121
22,COc1ccc(CCCCN(C(=O)C(N)Cc2ccccc2)c2cccc3ccccc23)cc1OC (stereo not drawn) [CBK001032T],118

row,Structure (SMILES),"viability at 28.5 h, 10 µM [%]"
1,O=C(c1sccc1Br)N1CCN(Cc2ccc3c(c2)OCO3)CC1 [CBK074730],100
2,CC(C)(O)C1CCCN(C(=O)c2coc(COc3cccc(F)c3)n2)C1 (stereo not drawn) [CBK306977],77.4
3,COc1ccc(C2C(C(C)=O)=C(O)C(=O)N2CCCC(=O)O)cc1 (stereo not drawn) [CBK263774],100
4,O=C(CCSS(=O)(=O)O)N1CCc2ccccc21 [CBK260892N],94.4
5,O=C(O)C1CC=CCC1C(=O)Nc1ccc(CN2CCOCC2)cc1 (stereo not drawn) [CBK299786],107
6,Cc1cc(C(=O)NCc2cccnc2N(C)C2CCCCC2)nn1C [CBK306577],69.6
7,CC(=O)c1ccc(-c2cn3ccnc3c(N3CCN(C)CC3)n2)s1 [CBK037957],94.4
8,Cc1c(Cl)cccc1NC(=O)C(=O)NCCCN1CCOCC1 [CBK263276],109
9,Cc1ccn2cc(CNC(=O)CN3CCOc4ccccc4C3)nc2c1 [CBK307518],84.6
10,Cc1cc(C)n(CC(=O)NC(Cc2cccs2)c2nccs2)n1 (stereo not drawn) [CBK284686],85.8
11,Cc1c(C)n(Cc2ccccc2)c2ccc(C(=O)OCCN3CCOCC3)cc12 [CBK262427],104
12,O=C(O)c1cc(S(=O)(=O)NCc2ccco2)ccc1Br [CBK306193],83.7
13,Cc1noc([C@@H]2C[C@H](NS(=O)(=O)c3ccc(C#N)cc3)CN2C)n1 [CBK288874],113
14,Cc1ncccc1OC1(C(=O)NCc2n[nH]c3c2CCC3)CCNCC1 [CBK307057],101
15,COc1cc(C2(O)CCN(Cc3ccccc3)C2)ccc1OCc1ccccc1 (stereo not drawn) [CBK045620],95.9
16,Cc1ccc(C#N)c(NS(=O)(=O)c2cc(C)c(Cl)cc2C)c1 [CBK045250],96.6
17,COc1ccc(C(N2CCOCC2)N2CCOCC2)cc1 [CBK261002],102
18,O=C1NC2(CCC2)C(=O)N1Cc1nn(-c2ccccc2)c2c1CCC2 [CBK306383],95.6
19,COc1ccc(Cl)cc1S(=O)(=O)N(C)CC(=O)O [CBK269919],97.1
20,Cc1cc(C)n(-c2ccc3nnc(CCCC(=O)O)n3n2)n1 [CBK307630],87.1
21,CCCNC(=O)Cn1nc(C)n2c(cc3sc(C)cc32)c1=O [CBK284068],86.1
